Reference: patent US20250382344A1, “Soluble GLP1/GIP/NPY2 Receptor Triple Agonists” (Boehringer Ingelheim International GmH, priority 2024, published 2025)
Like-named read-outs stand apart in the source and are kept apart here.

Columns and labels:
[1] = Solubility in 0.1 M phosphate buffer at pH 7; format: physicochemical; settings: 0.1 M phosphate buffer at pH 7, 10 mg/mL final peptide concentration, shaking 2 hours at room temperature, peptides as TFA-salts, measured sample pH 6.5-7.0
hGIPR = biological target: T1, hGIPR (Homo sapiens, UniProt P48546); assay: hGIPR CreLuc assay in 0.5% and 100% plasma (CHO CRE-luciferase reporter cells); format: cell-based
T1 construct: expressed in transfected cells; host or cells: CHO CRE-luciferase reporter cells
T1 sequence (P48546 22-466): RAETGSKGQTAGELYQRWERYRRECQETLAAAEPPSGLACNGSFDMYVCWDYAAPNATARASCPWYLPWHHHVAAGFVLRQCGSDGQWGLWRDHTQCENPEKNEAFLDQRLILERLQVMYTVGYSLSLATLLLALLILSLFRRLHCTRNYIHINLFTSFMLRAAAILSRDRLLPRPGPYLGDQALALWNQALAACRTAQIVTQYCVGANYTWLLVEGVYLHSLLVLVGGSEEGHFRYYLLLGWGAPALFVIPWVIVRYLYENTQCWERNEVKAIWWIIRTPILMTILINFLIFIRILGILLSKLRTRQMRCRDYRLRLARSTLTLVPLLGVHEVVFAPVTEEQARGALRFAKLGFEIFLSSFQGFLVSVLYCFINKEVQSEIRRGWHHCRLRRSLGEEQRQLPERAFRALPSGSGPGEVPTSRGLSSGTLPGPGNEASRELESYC

[2] = 0.5% human plasma, read-out: hGIPR 0.5% hP

Row | solubility at 2 h [1] | EC50 (hGIPR; [2]) | solubility ([1]; read-out: Solubility) | EC50 (hGIPR; 100% human plasma, read-out: hGIPR 100% hP) | SMILES
1 | 4300 µg/mL | 0.3 nM | – | – | CC[C@H](C)[C@H](NC(=O)[C@H](CC(C)C)NC(=O)[C@H](Cc1c[nH]cn1)NC(=O)[C@H](CCCNC(=N)N)NC(=O)[C@@H](NC(=O)[C@H](Cc1ccccc1)NC(=O)[C@H](C)NC(=O)C(C)(C)NC(=O)[C@H](CCC(N)=O)NC(=O)[C@H](C)NC(=O)[C@H](CCC(N)=O)NC(=O)[C@H](CCC(=O)O)NC(=O)[C@H](CCC(=O)O)NC(=O)[C@H](CC(C)C)NC(=O)C(C)(C)NC(=O)[C@@H](NC(=O)[C@H](CO)NC(=O)[C@H](Cc1ccc(O)cc1)NC(=O)[C@H](CC(=O)O)NC(=O)[C@H](CO)NC(=O)[C@@H](NC(=O)[C@H](Cc1ccccc1)NC(=O)[C@@H](NC(=O)CNC(=O)[C@H](CCC(=O)O)NC(=O)C(C)(C)NC(=O)[C@@H](N)Cc1ccc(O)cc1)[C@@H](C)O)[C@@H](C)O)[C@@H](C)CC)C(C)C)C(=O)N[C@@H](CC(N)=O)C(=O)N[C@@H](CCCCNC(=O)CC[C@H](NC(=O)CC[C@H](NC(=O)CC[C@H](NC(=O)CC[C@H](NC(=O)CC[C@H](NC(=O)CCCCCCCCCCCCCCCCC(=O)O)C(=O)O)C(=O)O)C(=O)O)C(=O)O)C(=O)O)C(=O)NC(C)(C)C(=O)N[C@H](C(=O)N[C@@H](CCCNC(=N)N)C(=O)N[C@@H](CCC(N)=O)C(=O)N[C@@H](CCCNC(=N)N)C(=O)N[C@@H](Cc1ccc(O)cc1)C(N)=O)[C@@H](C)O [Compound 75, Y-Aib-E-G-T-F-T-S-D-Y-S-I-Aib-L-E-E-Q-A-Q-Aib-A-F-V-R-H-L-I-N-K(1,3)-Aib-T-R-Q-R-Y-NH2.C18DA-gGlu-gGlu-gGlu-gGlu-gGlu(1,2)]
2 | 4100 µg/mL | 5 nM | – | – | CC[C@H](C)[C@H](NC(=O)[C@H](CC(C)C)NC(=O)[C@H](Cc1c[nH]cn1)NC(=O)[C@H](CCCNC(=N)N)NC(=O)[C@@H](NC(=O)[C@H](Cc1ccccc1)NC(=O)[C@H](C)NC(=O)C(C)(C)NC(=O)[C@H](Cc1ccc(O)cc1)NC(=O)[C@H](C)NC(=O)[C@H](CCC(N)=O)NC(=O)[C@H](CCCCN)NC(=O)[C@H](CCC(=O)O)NC(=O)[C@H](CC(C)C)NC(=O)C(C)(C)NC(=O)[C@@H](NC(=O)[C@H](CO)NC(=O)[C@H](Cc1ccc(O)cc1)NC(=O)[C@H](CC(=O)O)NC(=O)[C@H](CO)NC(=O)[C@@H](NC(=O)[C@H](Cc1ccccc1)NC(=O)[C@@H](NC(=O)CNC(=O)[C@H](CCC(=O)O)NC(=O)C(C)(C)NC(=O)[C@@H](N)Cc1ccc(O)cc1)[C@@H](C)O)[C@@H](C)O)[C@@H](C)CC)C(C)C)C(=O)N[C@@H](CC(N)=O)C(=O)N[C@@H](CCCCNC(=O)[C@@H](N)CCCCNC(=O)CC[C@H](NC(=O)CC[C@H](NC(=O)CC[C@H](NC(=O)CC[C@H](NC(=O)CC[C@H](NC(=O)CC[C@H](NC(=O)CCCCCCCCCCCCCCCCC(=O)O)C(=O)O)C(=O)O)C(=O)O)C(=O)O)C(=O)O)C(=O)O)C(=O)NC(C)(C)C(=O)N[C@H](C(=O)N[C@@H](CCCNC(=N)N)C(=O)N[C@@H](CCC(N)=O)C(=O)N[C@@H](CCCNC(=N)N)C(=O)N[C@@H](Cc1ccc(O)cc1)C(N)=O)[C@@H](C)O [Compound 84, Y-Aib-E-G-T-F-T-S-D-Y-S-I-Aib-L-E-K-Q-A-Y-Aib-A-F-V-R-H-L-I-N-K(1,3)-Aib-T-R-Q-R-Y-NH2.C18DA-gGlu-gGlu-gGlu-gGlu-gGlu-gGlu-eLys(1,2)]
3 | – | 0.8 nM | 2200 µg/mL | 14.4 nM | CC[C@H](C)[C@H](NC(=O)[C@H](CC(C)C)NC(=O)[C@H](Cc1c[nH]cn1)NC(=O)[C@H](CCCNC(=N)N)NC(=O)[C@@H](NC(=O)[C@H](Cc1ccccc1)NC(=O)[C@H](C)NC(=O)C(C)(C)NC(=O)[C@H](CCC(N)=O)NC(=O)[C@H](CCCNC(=N)N)NC(=O)[C@H](CCC(N)=O)NC(=O)[C@H](CCCCN)NC(=O)[C@H](CCC(=O)O)NC(=O)[C@H](CC(C)C)NC(=O)C(C)(C)NC(=O)[C@@H](NC(=O)[C@H](CO)NC(=O)[C@H](Cc1ccc(O)cc1)NC(=O)[C@H](CC(=O)O)NC(=O)[C@H](CO)NC(=O)[C@@H](NC(=O)[C@H](Cc1ccccc1)NC(=O)[C@@H](NC(=O)CNC(=O)[C@H](CCC(=O)O)NC(=O)C(C)(C)NC(=O)[C@@H](N)Cc1ccc(O)cc1)[C@@H](C)O)[C@@H](C)O)[C@@H](C)CC)C(C)C)C(=O)N[C@@H](CC(N)=O)C(=O)N[C@@H](CCCCNC(=O)[C@@H](N)CCCCNC(=O)CC[C@H](NC(=O)CC[C@H](NC(=O)CC[C@H](NC(=O)CC[C@H](NC(=O)CC[C@H](NC(=O)CC[C@H](NC(=O)CCCCCCCCCCCCCCCCC(=O)O)C(=O)O)C(=O)O)C(=O)O)C(=O)O)C(=O)O)C(=O)O)C(=O)NC(C)(C)C(=O)N[C@H](C(=O)N[C@@H](CCCNC(=N)N)C(=O)N[C@@H](CCC(N)=O)C(=O)N[C@@H](CCCNC(=N)N)C(=O)N[C@@H](Cc1ccc(O)cc1)C(N)=O)[C@@H](C)O [Compound 91, Y-Aib-E-G-T-F-T-S-D-Y-S-I-Aib-L-E-K-Q-R-Q-Aib-A-F-V-R-H-L-I-N-K(1,3)-Aib-T-R-Q-R-Y-NH2.C18DA-gGlu-gGlu-gGlu-gGlu-gGlu-Glu-eLys(1,2)]
4 | 9000 µg/mL | 0.3 nM | – | – | CC[C@H](C)[C@H](NC(=O)[C@H](CC(C)C)NC(=O)[C@H](Cc1c[nH]cn1)NC(=O)[C@H](CCCNC(=N)N)NC(=O)[C@@H](NC(=O)[C@H](Cc1ccccc1)NC(=O)[C@H](C)NC(=O)C(C)(C)NC(=O)[C@H](CCC(N)=O)NC(=O)[C@H](C)NC(=O)[C@H](CCC(N)=O)NC(=O)[C@H](CCCCN)NC(=O)[C@H](CCC(=O)O)NC(=O)[C@H](CC(C)C)NC(=O)C(C)(C)NC(=O)[C@@H](NC(=O)[C@H](CO)NC(=O)[C@H](Cc1ccc(O)cc1)NC(=O)[C@H](CC(=O)O)NC(=O)[C@H](CO)NC(=O)[C@@H](NC(=O)[C@H](Cc1ccccc1)NC(=O)[C@@H](NC(=O)CNC(=O)[C@H](CCC(=O)O)NC(=O)C(C)(C)NC(=O)[C@@H](N)Cc1ccc(O)cc1)[C@@H](C)O)[C@@H](C)O)[C@@H](C)CC)C(C)C)C(=O)N[C@@H](CC(N)=O)C(=O)N[C@@H](CCCCNC(=O)CC[C@H](NC(=O)[C@@H](N)CCCCNC(=O)CC[C@H](NC(=O)CC[C@H](NC(=O)CC[C@H](NC(=O)CC[C@H](NC(=O)CC[C@H](NC(=O)CCCCCCCCCCCCCCCCCCC(=O)O)C(=O)O)C(=O)O)C(=O)O)C(=O)O)C(=O)O)C(=O)O)C(=O)NC(C)(C)C(=O)N[C@H](C(=O)N[C@@H](CCCNC(=N)N)C(=O)N[C@@H](CCC(N)=O)C(=O)N[C@@H](CCCNC(=N)N)C(=O)N[C@@H](Cc1ccc(O)cc1)C(N)=O)[C@@H](C)O [Compound 94, Y-Aib-E-G-T-F-T-S-D-Y-S-I-Aib-L-E-K-Q-A-Q-Aib-A-F-V-R-H-L-I-N-K(1,3)-Aib-T-R-Q-R-Y-NH2.C20DA-gGlu-gGlu-gGlu-gGlu-gGlu-eLys-gGlu(1,2)]
5 | 4300 µg/mL | 0.3 nM | – | – | CC[C@H](C)[C@H](NC(=O)[C@H](CC(C)C)NC(=O)[C@H](Cc1c[nH]cn1)NC(=O)[C@H](CCCNC(=N)N)NC(=O)[C@@H](NC(=O)[C@H](Cc1ccccc1)NC(=O)[C@H](C)NC(=O)C(C)(C)NC(=O)[C@H](CCC(N)=O)NC(=O)[C@H](C)NC(=O)[C@H](CCC(N)=O)NC(=O)[C@H](C)NC(=O)[C@H](CCC(=O)O)NC(=O)[C@H](CC(C)C)NC(=O)C(C)(C)NC(=O)[C@@H](NC(=O)[C@H](CO)NC(=O)[C@H](Cc1ccc(O)cc1)NC(=O)[C@H](CC(=O)O)NC(=O)[C@H](CO)NC(=O)[C@@H](NC(=O)[C@H](Cc1ccccc1)NC(=O)[C@@H](NC(=O)CNC(=O)[C@H](CCC(=O)O)NC(=O)C(C)(C)NC(=O)[C@@H](N)Cc1ccc(O)cc1)[C@@H](C)O)[C@@H](C)O)[C@@H](C)CC)C(C)C)C(=O)N[C@@H](CC(N)=O)C(=O)N[C@@H](CCCCNC(=O)[C@@H](N)CCCCNC(=O)CC[C@H](NC(=O)CC[C@H](NC(=O)CC[C@H](NC(=O)CC[C@H](NC(=O)CC[C@H](NC(=O)CC[C@H](NC(=O)CCCCCCCCCCCCCCCCC(=O)O)C(=O)O)C(=O)O)C(=O)O)C(=O)O)C(=O)O)C(=O)O)C(=O)NC(C)(C)C(=O)N[C@H](C(=O)N[C@@H](CCCNC(=N)N)C(=O)N[C@@H](CCC(N)=O)C(=O)N[C@@H](CCCNC(=N)N)C(=O)N[C@@H](Cc1ccc(O)cc1)C(N)=O)[C@@H](C)O [Compound 123, Y-Aib-E-G-T-F-T-S-D-Y-S-I-Aib-L-E-A-Q-A-Q-Aib-A-F-V-R-H-L-I-N-K(1,3)-Aib-T-R-Q-R-Y-NH2.C18DA-gGlu-gGlu-gGlu-gGlu-gGlu-gGlu-eLys(1,2)]
